Experimental data from patent US10493126B2, “Combination therapy for ameliorating adverse side effects caused by chemotherapy” (YEASTERN BIOTECH CO., LTD, priority 2014, dated 2019).
Values joined by “and” are separate entries in the source; they are usually repeats but may differ in a detail not shown here. Equal entries are not always repeated.

How the values were obtained:
BALB/cByJNarl mice [1] = assay: Complete blood count in Docetaxel mice model; assay type: in vivo
Excerpt: (§1) Male BALB/cByJNarl mice (6-8 weeks old) were purchased from National Laboratory Animal Center (NLAC) in Taiwan and randomly divided into four groups, with five mice in Groups Docetaxel+PBS, Docetaxel+FIP-fve and Docetaxel+FIP-gts each and four in Control group. The mice were housed under pathogen-free conditions with a 12-hour light/12-hour dark schedule, and fed an autoclaved diet with ad libitum access to standard rodent chow (Laboratory Rodent Diet 5001, LabDiet, St. Louis, Mo., USA). Three days before the administration of Docetaxel (namely, Day-3), the mice in the Docetaxel+PBS Group started to be fed phosphate-buffered saline (PBS) at 100 μL/animal/day, and the daily feeding of PBS continued throughout the experiment. The mice were injected intravenously in the tail vein with Taxotere® (Aventis Pharma Ltd., Dagenham, UK) at a dose of 30 mg/kg body weight on Days 1, 8 and 15. The Docetaxel+FIP-fve and Docetaxel+FIP-gts Groups were administered Taxotere® at the same dose on the same days as described above. Additionally, the two treatment groups daily received 100 μL PBS added with either 200 μg FIP-fve or 400 μg FIP-gts throughout the experiment starting from Day-3 until the end of the experiment (Day 18). The FIP-gts protein used in this and other Examples disclosed herein was produced according to the method disclosed in WO2005040375A1. The FIP-fve protein used herein was purified from F. velutipes by the method disclosed in Ko J. L., Eur. J. Biochem. 1995; 228:244-249. The mice of the Control Group were given with PBS alone at 100 μL/animal/day without being injected with anti-cancer agent. Blood was sampled from the orbital sinus of the mice on days 4, 11 and 18 for subsequent analysis. The animals were sacrificed by CO2 asphyxiation on day 18. The protocol of the experiment is illustrated in FIG. 1.

[2] = test system: human patients with stage III or IV lung cancer; assay: Clinical study: FIP-gts tablets with Taxotere and cisplatin/carboplatin; assay type: in vivo; design: key to ECOG: 0: Asymptomatic (Fully active, able to carry on all pre-disease activities without restriction); 1: Symptomatic but completely ambulatory (Restricted in physically strenuous activity but ambulatory and able to carry out work of a light or sedentary nature. For example, light housework, office work); 2: Symptomatic, <50% in bed during the day (Ambulatory and capable of all self care but unable to carry out any work activities. Up and about more than 50% of waking hours); 3: Symptomatic, >50% in bed, but not bedbound (Capable of only limited self-care, confined to bed or chair 50% or more of waking hours); 4: Bedbound (Completely disabled. Cannot carry on any self-care. Totally confined to bed or chair); 5: Death; settings: columns = course days; for Hb: in g/dL (unit assumed); for Cr.: in mg/dL (unit assumed)
Protocol: The inventors further conducted a clinical study on diminished quality of life (QOL) and cancer-related fatigue (CRF) caused by chemotherapy. The QOL and CRF of selected human patients were evaluated by the Eastern Cooperative Oncology Group (ECOG) Performance Status Scale from 0 to 5 (Oken M. M., et al., Am. J. Clin. Oncol.; 1982, 5(6): 649-55), where each grade represents:
Five human patients with stage III or IV lung cancer were enrolled in this study. During the study, each patient was administered Taxotere® at either a low dose of 20-30 mg/m^2 or a high dose of 60-69 mg/m^2 in conjunction with cisplatin/carboplatin on the designated days as prescribed by the physician, and received daily two tablets of FIP-gts (3 mg/tablet). The patients were asked to come back to the hospital on the designated days for follow up at the clinic and collection of blood samples. The patients were assessed for quality of life and fatigue according to the ECOG performance status system described above. The medical records of the five patients, as well as the administration regimens for the patients, were illustrated in Tables III.A-III.E below.

BALB/cByJNarl mice [3] = assay: Micro CT of tibia, trabecular bone micro-architecture, Docetaxel mice model; assay type: in vivo; settings: for porosity of knee, distal femur and proximal tibia samples, in words: FIG. 3B/3C, versus the mice group injected with Docetaxel alone
Excerpt: as §1
Tibiae were separated from right hind limbs of the mice and defleshed. Afterwards, individual tibiae were placed into 15 mL Falcons conical centrifuge tubes (Becton, Dickinson and Company, Franklin Lakes, N.J., USA) and covered with 70% ethanol. The tibia samples were sent to the Taiwan Mouse Clinic, funded by the National Research Program for Biopharmaceuticals (NRPB) of the National Science Council (NSC) in Taiwan, where the samples were scanned by applying three-dimensional micro-computed tomography (micro CT) in a high-resolution low-dose X-ray scanner (SkyScan 1076, Aartselaar, Belgium) and assessed for trabecular bone micro-architecture. For histological analysis, some tibia samples were demineralized in 10% EDTA for two weeks, dehydrated in graded ethanol solutions and embedded in paraffin wax using a Leica ASP300S tissue processor (Leica Microsystems Nussloch GmbH). Deparaffinized sections were stained with hematoxylin and eosin (H&E staining) and then observed under microscope.

human lymphocytes = settings: 3H-thymidine, compared to PHA; cited from earlier work
BALB/cByJNarl mice [4] = assay: Structural integrity of jejunal villus, H&E histology, Docetaxel mice model; assay type: in vivo; settings: mice jejunum, FIG. 2A/2B
Excerpt: (§2) Male BALB/cByJNarl mice (6-8 weeks old) were purchased from National Laboratory Animal Center (NLAC) in Taiwan and randomly divided into four groups, with five mice in Groups Docetaxel+PBS, Docetaxel+FIP-fve and Docetaxel+FIP-gts each and four in Control group. The mice were housed under pathogen-free conditions with a 12-hour light/12-hour dark schedule, and fed an autoclaved diet with ad libitum access to standard rodent chow (Laboratory Rodent Diet 5001, LabDiet, St. Louis, Mo., USA). Three days before the administration of Docetaxel (namely, Day-3), the mice in the Docetaxel+PBS Group started to be fed phosphate-buffered saline (PBS) at 100 μL/animal/day, and the daily feeding of PBS continued throughout the experiment. The mice were injected intravenously in the tail vein with Taxotere® (Aventis Pharma Ltd., Dagenham, UK) at a dose of 30 mg/kg body weight on Days 1, 8 and 15. The Docetaxel+FIP-fve and Docetaxel+FIP-gts Groups were administered Taxotere® at the same dose on the same days as described above. […]
Intestinal samples from the jejunum of the sacrificed mice were fixed in 10% formalin and embedded in paraffin wax. […] The histological images of villi appeared in the intestinal samples are shown in FIG. 2A, and the lengths of villi measured by an NIS-Elements D 3.2 image analysis system (Nikon, Japan) were shown in FIG. 2B.

BALB/cByJNarl mice [5] = assay: Bone marrow adipogenesis in tibia, H&E histology, Docetaxel mice model; assay type: in vivo; settings: FIG. 4A/4B, compared to the Control
Excerpt: as §2, with “15.” for “15. The Docetaxel+FIP-fve and Docetaxel+FIP-gts Groups were administered Taxotere® at the same dose on the same days as described above.”
Tibiae were separated from right hind limbs of the mice and defleshed. […] The tibia samples were sent to the Taiwan Mouse Clinic, funded by the National Research Program for Biopharmaceuticals (NRPB) of the National Science Council (NSC) in Taiwan, where the samples were scanned by applying three-dimensional micro-computed tomography (micro CT) in a high-resolution low-dose X-ray scanner (SkyScan 1076, Aartselaar, Belgium) and assessed for trabecular bone micro-architecture. […]

[6] = Patient Case 3, Taxotere + cisplatin + daily FIP-gts, chemotherapy course 1, April
[7] = Patient Case 3, Taxotere + cisplatin + daily FIP-gts, chemotherapy course 2, May 10
[8] = Patient Case 3, Taxotere + cisplatin + daily FIP-gts, chemotherapy course 3, May
[9] = Patient Case 4, low dose Taxotere + cisplatin/carboplatin + daily FIP-gts
[10] = Patient Case 4, low dose Taxotere + cisplatin/carboplatin + daily FIP-gts, in U/L (unit assumed)
[11] = Docetaxel 30 mg/kg i.v. Days 1, 8, 15, daily FIP-fve 200 μg or FIP-gts 400 μg in 100 μL PBS from Day -3, Day 18
[12] = mice tibia, micro CT, Day 18, Docetaxel 30 mg/kg i.v., FIP-fve 200 μg or FIP-gts 400 μg daily

Q: What does the source list for “FIP-gts: fungal immunomodulatory protein of Ganoderma tsugae, SEQ ID NO: 1, produced according to WO2005040375A1; 3 mg tablets in the clinical study”?
A: WBC level, in words (BALB/cByJNarl mice [1]; co-treatment with Docetaxel): remarkably restored the WBC level to its control value; ECOG ([2]; Patient Case 1, Taxotere + cisplatin/carboplatin + daily FIP-gts): 1; ECOG ([2]; Patient Case 2, Taxotere + cisplatin/carboplatin + daily FIP-gts): 1; ECOG ([2]; Patient Case 3, Taxotere + cisplatin + daily FIP-gts): 0; AST ([2]; Patient Case 3, Taxotere + cisplatin + daily FIP-gts, in U/L (unit assumed), chemotherapy course 1, April): 14; AST ([2]; Patient Case 3, Taxotere + cisplatin + daily FIP-gts, in U/L (unit assumed), chemotherapy course 2, May 10): 13; AST ([2]; Patient Case 3, Taxotere + cisplatin + daily FIP-gts, in U/L (unit assumed), chemotherapy course 3, May): 15; Hb [2, 6]: 14.9; Hb [2, 7]: 13.9; Hb [2, 8]: 12; Cr. [2, 6]: 1.09; Cr. [2, 7]: 0.94; Cr. [2, 8]: 0.86; ECOG [2, 9]: 1; ALT [2, 10]: 10 and 9; AST [2, 10]: 18 and 13 and 15; Hb [2, 9]: 11.2 and 10 and 8.6 and 9.5 and 9.6 and 8.9; Cr. [2, 9]: 0.8 and 0.89 and 1.15; ECOG ([2]; Patient Case 5, low dose Taxotere + cisplatin + daily FIP-gts): 0; porosity of knee, distal femur and proximal tibia samples, in words (BALB/cByJNarl mice [3]; micro CT): considerably less porous; concentration sufficient to reach the maximum proliferation of human lymphocytes (human lymphocytes): 5 µg/mL

Q: Which results are given for CC(=O)O[C@@]12CO[C@@H]1C[C@H](O)[C@@]1(C)C(=O)[C@H](O)C3=C(C)[C@@H](OC(=O)[C@H](O)[C@@H](NC(=O)OC(C)(C)C)c4ccccc4)C[C@@](O)([C@@H](OC(=O)c4ccccc4)[C@H]21)C3(C)C [Docetaxel, (2R,3S)-N-carboxy-3-phenylisoserine, N-tert-butyl ester, 13-ester with 5, 20-epoxy-1,2,4,7, 10, 13-hexahydroxytax-11-en-9-one 4-acetate 2-benzoate, trihydrate]?
A: structural integrity of villi, in words (BALB/cByJNarl mice [4]): severely damaged and blunted; HCT (BALB/cByJNarl mice [1]; [11]): 39.94 ± 1.19%; HGB (BALB/cByJNarl mice [1]; [11]): 11.77 ± 0.31 g/dL; MCH (BALB/cByJNarl mice [1]; [11]): 15.00 ± 0.16 pg; MCHC (BALB/cByJNarl mice [1]; [11]): 29.48 ± 0.05 g/dL; MCV (BALB/cByJNarl mice [1]; [11]): 50.82 ± 0.49 fL; MPV (BALB/cByJNarl mice [1]; [11]): 6.71 ± 0.17 fL; PLT (BALB/cByJNarl mice [1]; [11]): 317.88 ± 60.27 10^3/μL; RBC (BALB/cByJNarl mice [1]; [11]): 7.86 ± 0.24 ×10^6/μL; RDW (BALB/cByJNarl mice [1]; [11]): 29.26 ± 0.73 fL; WBC (BALB/cByJNarl mice [1]; [11]): 3.29 ± 0.80 ×10^3/μL; levels of white blood cells (WBC), red blood cells (RBC), hemoglobin (HGB), hematocrit (HCT) and platelets (PLT), in words (BALB/cByJNarl mice [1]; Docetaxel alone compared with the Control group): considerable reduction; Bone surface density BS/TV (BALB/cByJNarl mice [3]; [12]): 3.852 1/U; Percent bone volume BV/TV (BALB/cByJNarl mice [3]; [12]): 5.634%; Structure model index SMI (BALB/cByJNarl mice [3]; [12]): 2.1757; Trabecular number Tb.N (BALB/cByJNarl mice [3]; [12]): 0.8566 1/U; Trabecular separation Tb.Sp (BALB/cByJNarl mice [3]; [12]): 0.5623 U; Trabecular thickness Tb.Th (BALB/cByJNarl mice [3]; [12]): 0.06577 U; structural integrity of the tibia, in words (BALB/cByJNarl mice [3]; micro CT, FIG. 3A, compared to the Control Group): much more osteo-porous than the Control; Docetaxel-induced osteoporosis, in words (BALB/cByJNarl mice [3]; tibia samples, from trabecular number, percent bone volume, trabecular separation): induction of osteoporosis; adipogenesis in tibia bone marrow, in words (BALB/cByJNarl mice [5]): increase in marrow adipose tissue

B1: FIP-fve: fungal immunomodulatory protein purified from F. velutipes, SEQ ID NO: 2 (protein)
chain: SATSLTFQLAYLVKKIDFDYTPNWGRGTPSSYIDNLTFPKVLTDKKYSYRVVVNGSDLGVESNFAVTPSGGQTINFLQYNKGYGVADTKTIQVFVVIPDTGNSEEYIIAEWKKT
modifications: Flammulina Velutipes
Q: Which results are given for B1?
A: HGB and PLT levels, in words (BALB/cByJNarl mice [1]; reduction caused by Docetaxel): lessened the reduction; porosity of knee, distal femur and proximal tibia samples, in words (BALB/cByJNarl mice [3]; micro CT): considerably less porous; concentration sufficient to reach the maximum proliferation of human lymphocytes (human lymphocytes): 100 µg/mL
